Each structure is given as a SMILES string. Several values for one entry are separate records, joined by “and”; a condition that tells them apart may be missing. Equal entries are not always repeated. Where two headings read alike, the source gives them in different places. Bounds are passed on as bounds.

One data set addresses T1, GB1-FRS2_PTB:FGFR_PEP (Homo sapiens, UniProt Q8WU20).
T1 construct: FRS2-PTB 11-140aa; 6xHis (N); made in house; host or cells: E. coli BL21 (DE3) for the protein
T1 sequence (Q8WU20 11-140): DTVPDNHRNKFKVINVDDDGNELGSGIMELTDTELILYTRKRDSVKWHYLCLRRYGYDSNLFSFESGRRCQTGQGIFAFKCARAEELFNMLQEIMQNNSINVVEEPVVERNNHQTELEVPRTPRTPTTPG
In words: nanoDSF competition assay with the FGFR peptide. It counts as binding. The settings on record: PTB domain:FGFR peptide 1:5; 500 μM compound. How it is done: (§1) Purified FRS2_PTB or GB1_FRS2_PTB protein tagged with 6 × Histidine residues and the B1 immunoglobulin binding domain of the streptococcal protein G (GB1) were diluted in the protein buffer (100 mM sodium phosphate, 50 mM NaCl, 0.5 mM EDTA, 50 mM arginine, 1 mM TCEP, pH 7.0) to 30 μM, GB-1 to 40 μM. FGFR_PEP, compounds or paracetamol (PARA) as negative control were dissolved at 1 mM in the protein buffer supplemented with 10% DMSO. Compound and protein were mixed at 1:1 volume ratio yielding a final concentration of 15 μM and 20 μM for FRS2_PTB/GB1_FRS2_PTB and GB1, respectively, as well as 500 μM for FGFR_PEP or compounds. The mixture was incubated for 15 min. Each compound was measured in triplicates. Protein controls were measured in six replicates in the beginning. The quality of the screen was assessed by the Z-factor. nanoDSF validation studies were performed on a Prometheus® system in high sensitivity capillaries. Samples were heated with 1 °C/min from 20 to 95 °C. Each compound was measured in triplicates. GB1-FRS2_PTB and GB1 were diluted in the protein buffer (100 mM sodium phosphate, 50 mM NaCl, 0.5 mM EDTA, 50 mM arginine, 1 mM TCEP, pH 7.0) to 30 μM. Compounds 3.3, 3.4, 3.18 as well as the 3.18 analogues were dissolved in 100% DMSO at 50 or 100 mM and further diluted to 1 mM with a final […]. FGFR_PEP was dissolved at 1 mM in the protein buffer supplemented with 10% DMSO. Compound and protein were mixed at 1:1 volume ratio yielding final concentrations of 15 μM protein and 500 μM for the compounds. FGFR_PEP was measured against both GB1-FRS2_PTB and GB1, all other compounds only against GB1-FRS2_PTB. The mixture was incubated for 15 min before measurement. The data was analyzed for both the ratio of signals at 330 and 350 nm and at 350 nm alone. For the competition assays, the PTB domain and the FGFR peptide were mixed at a 1:5 ratio, and ligand competition was assayed in the presence of 500 μM compound.
(In general: DSF heats the sample and reads unfolding from a dye or from intrinsic fluorescence.)

Data set [1] is described as follows: Solubility at the concentration required for the biophysical assays. It is filed as physicochemical. As to conditions: 5% DMSO.
In data set [2] the test system is DAOY cells. Nature of the data set: SIA, EGF-induced cell invasion. The settings on record: 10 µM. It is filed as cell-based, human. The protocol:
(§2) 1000—2500 cells/well in 100 μl were seeded in 96 well Corning® Spheroid microplate (CLS4520, Sigma-Aldrich) or in cell-repellent 96 well microplate (650,790, Greiner Bio-one). SIA and analysis was performed as described before. In brief: After spheroid formation (24 – 72 h after seeding), 70 µl medium was removed and replaced with the collagen mixture (2.5 mg/ml Pure Col Collagen I (Advanced Biomatrix)), DMEM 1x (from 10 × stock, Sigma, D2429) and 0.4% Sodium bicarbonate (Sigma, S8761)), resulting in a final collagen concentration of 1.75 mg/ml. Embedded spheroids were stimulated with bFGF (100 ng/ml if not otherwise stated), HGF (30 ng /ml) or EGF (20 ng/ml) and distance of invaded cells quantified 24 – 48 h after embedding. Compounds and BGJ398 were added in Dimethylsulfoxid (DMSO) and corresponding DMSO concentrations were used in control samples.

In data set [3] the test system is DAOY cells. In words: Spheroid invasion assay (SIA), bFGF-induced collagen I invasion. It counts as cell-based, human. The settings on record: DAOY cells, n = 3 technical replicas, read-out: EC50 for the inhibition of bFGF-induced collagen I invasion. How it is done:
as §2

A further data set concerns the target T2, FRS2_PTB (Homo sapiens, UniProt Q8WU20).
T2 construct: FRS2-PTB 11-140aa; 6xHis; made in house; host or cells: E. coli BL21 (DE3)
T2 sequence (Q8WU20 11-140): T1 sequence (Q8WU20 11-140)
In words: nano differential scanning fluorimetry (nanoDSF). It is filed as binding. The settings on record: 500 μM ligand. How it is done:
Assay establishment and pilot nanoDSF experiments were performed with a Tycho® system. Each experiment was performed by mixing the protein and ligand of interest at a 1:1 ratio and subsequent incubation for 15–30 min at room temperature. Controls of protein alone and ligand alone in identical buffer compositions as for the complex were measured accordingly. The temperature gradient ranged from 35 to 95 °C, and the heating rate was 30 °C/min. Inflection temperatures TI were calculated from the first derivative of the spectra obtained at the ratio of the signals at 350 nm to those at 330 nm. ΔTI of a complex was calculated as following: ΔTI,complex = TI,complex – TI,protein.
The in-built software version 1.1.5.668 (NanoTemper Technologies, Munich, Germany) and Microsoft Office Excel 365 (Microsoft Corp., Seattle, USA) was used for data analysis. Data was plotted with GraphPad Prism vers. 8.3.0 (GraphPad Software, San Diego, USA).
as §1, with “For the competition assays, the PTB domain and the FGFR peptide were mixed at a 1:5 ratio, and ligand competition was assayed in the presence of 500 μM compound.” left out

The next data set concerns the target T3, GB1-FRS2-PTB (Homo sapiens, UniProt Q8WU20).
T3 construct: FRS2-PTB 11-140aa; 6xHis (N); made in house; host or cells: E. coli BL21 (DE3)
T3 sequence (Q8WU20 11-140): T1 sequence (Q8WU20 11-140)
Nature of the data set: Microscale thermophoresis (MST). It counts as binding. The protocol: Protein labeling for MST was performed with the 2nd Generation BLUE-NHS dye. GB1-FRS2_PTB- was labelled at 20 μM with 60 μM dye and incubated for 30 min in the dark at room temperature. The labelling was performed in the protein buffer without arginine supplementation. It was rebuffered to protein buffer (100 mM sodium phosphate, 50 mM NaCl, 0.5 mM EDTA, 50 mM arginine, 1 mM TCEP, pH 7.0). The dye was subsequently removed by gravitational flow chromatography and the protein concentration determined by UV-spectroscopy. The assay was established with the FGFR_PEP. […] A total volume of 10 μl of 50 nM labelled protein was added to 10 μl of the peptide dilution series for a final labelled protein concentration of 25 nM. The samples were incubated for 15 min at RT. […] Temperature was set to 25 °C. Each measurement was repeated twice. The interaction was measured in duplicates for the non-DMSO-supplemented buffer and in triplicates for DMSO-supplemented buffer. […] The samples were incubated for 15 min, and MST assessed as described above. Each measurement was repeated twice. The interaction was measured in two independent duplicates. […] The mixture was then measured for their initial fluorescence once. MST-experiments were performed with MO.Control vers. 1.6 (NanoTemper Technologies, Munich, Germany) and data analyzed with MO.Analysis vers. 2.3 (NanoTemper Technologies, Munich, Germany). Data was plotted with GraphPad Prism vers. 8.3.0 (GraphPad Software, San Diego, USA).
(In general: In MST a laser heats a spot of the sample, and binding alters the fluorescence response.)

Consider `O=[N+]([O-])c1c(Cl)cc(O)c2c1C1C=CCC1C(c1ccccc1)N2` (stereo not drawn) [Compound 9], for which the “nanoDSF competition with FGFR peptide (result in words)” value (“nanoDSF competition with FGFR peptide” below) on GB1-FRS2_PTB:FGFR_PEP is on record as “negative shift in compound-mixed samples”. In addition, the “solubility for biophysical assays (result in words)” value in data set [1] is recorded as “soluble in 5% DMSO”. Besides, the “effect on EGF-induced cell invasion (result in words)” value in the data set with DAOY cells [2] is given as “only moderately reduced”.

As to `O=[N+]([O-])c1c(Cl)cc(O)c2c1C1C=CCC1C(C1CC=CCC1)N2` (stereo not drawn) [Compound 3.18], the EC50 (commonly the concentration giving half of the maximal effect) with DAOY cells [3] amounted to 1.29 µM; with DAOY cells [3] (Homo sapiens, Daoy) it was 1.29 µM. Besides, at FRS2_PTB, the “nanoDSF shift of the inflection point of the melting curve (ΔTm)” value is < -2 °C. Besides, the “nanoDSF competition with FGFR peptide” value at GB1-FRS2_PTB:FGFR_PEP is “negative shift in compound-mixed samples”. For the same compound, on GB1-FRS2-PTB (GB1-FRS2_PTB, read-out: KD, initial fluorescence change analysis), the Kd (commonly the concentration at which binding is half-saturated) is 110 µM and 140 µM and 110 to 140 µM. Besides, the “binding by MST trace analysis (result in words)” value on GB1-FRS2-PTB (signal:noise ratio > 5 counts as binding) was “no binding was detected”. The “effect on EGF-induced cell invasion (result in words)” value in the data set on DAOY cells [2] is given as “only moderately reduced”.

On to `O=[N+]([O-])c1c(Cl)cc(O)c2c1C1C=CCC1C(c1ccc(Br)cc1)N2` (stereo not drawn) [Compound 2], for which the “nanoDSF competition with FGFR peptide” value at GB1-FRS2_PTB:FGFR_PEP is “negative shift in compound-mixed samples”. Moreover, the “solubility for biophysical assays (result in words)” value in data set [1] is “soluble in 5% DMSO”.

(Values after PMC10060354, “Discovery of a small molecule ligand of FRS2 that inhibits invasion and tumor growth” (Cellular Oncology, 2022).)
